Results reported in US6403622B1, “Phenylacetic acid heterocyclyl amides having an insecticidal effect” (Bayer Aktiengesellschaft, priority 1998, dated 2002).
Read-outs that look alike come from different tables or passages of the source.

Tests used:
log p determination = type: physicochemical
Plasmopara vilicola = test: Plasmopara test (grapevine) / protective; type: in vivo; conditions: 144 h, application rate 100 g/ha, evaluation 6 days after inoculation, read-out: Efficacy in %
Method: (§1) Solvent: 47 parts by weight of acetone
(§2) Emulsifier: 3 parts by weight of alkylaryl polyglycol ether
(§3) To produce a suitable preparation of active compound, 1 part by weight of active compound is mixed with the stated amounts of solvent and emulsifier, and the concentrate is diluted with water to the desired concentration.
To test for the protective activity, young plants are sprayed with the preparation of active compound at the stated application rate. After the spray coating has dried on, the plants are inoculated with an aqueous spore suspension of Plasmopara vilicola and then remain in an incubation cabin at about 20° C. and 100% relative atmospheric humidity for 1 day. The plants are then placed in a greenhouse at about 21° C. and about 90% relative atmospheric humidity for 5 days. The plants are then moistened and placed in an incubation cabin for 1 day.
Evaluation is carried out 6 days after the inoculation. 0% means an efficacy which corresponds to that of the control, whereas an efficacy of 100% means that no infection is observed.

Podosphaera leucotricha = test: Podosphaera test (apple) / protective; type: in vivo; conditions: application rate 100 g/ha, evaluation 10 days after inoculation
Method: as §1, §2, §3
To test for protective activity, young plants are sprayed with the preparation of active compound at the stated application rate. After the spray coating has dried on, the plants are inoculated with an aqueous spore suspension of the causative organism of apple mildew Podosphaera leucotricha. The plants are then placed in a greenhouse at about 23° C. and a relative atmospheric humidity of about 70%.
Evaluation is carried out 10 days after the inoculation. 0% means an efficacy which corresponds to that of the control, whereas an efficacy of 100% means that no infection is observed.

[1] = tested on: larvae of the mustard beetle (Phaedon cochleariae); test: Phaedon larvae test; type: in vivo; conditions: 168 h, concentration of active compound 0.1 %, cabbage leaves dipped, after 7 d, read-out: Kill rate in % after 7 d
Method: Solvent: 7 parts by weight of dimethylformamide Emulsifier: 1 part by weight of alkylaryl polyglycol ether To produce a suitable preparation of active compound, 1 part by weight of active compound is mixed with the stated amount of solvent and the stated amount of emulsifier, and the concentrate is diluted with water to the desired concentration. Cabbage leaves (Brassica oleracea) are treated by being dipped into the preparation of active compound and are populated with larvae of the mustard beetle (Phaedon cochleariae) while the leaves are still moist.

[2] = tested on: caterpillars of the army worm Spodoptera frugiperda; test: Spodoptera frugiperda test; type: in vivo; conditions: concentration of active compound 0.1 %, cabbage leaves dipped
Method: (§4) Solvent: 7 parts by weight of dimethylformamide
(§5) Emulsifier: 1 part by weight of alkylaryl polyglycol ether
(§6) To produce a suitable preparation of active compound, 1 part by weight of active compound is mixed with the stated amount of solvent and the stated amount of emulsifier, and the concentrate is diluted with water to the desired concentration.
Cabbage leaves (Brassica oleracea) are treated by being dipped into the preparation of active compound of the desired concentration and are populated with caterpillars of the army worm Spodoptera frugiperda while the leaves are still moist.
After the desired period of time, the effect in % is determined. 100% means that all caterpillars have been killed; 0% means that none of the caterpillars have been killed.

[3] = tested on: Erysiphe graminis f.sp. tritici; test: Erysiphe test (wheat) / protective; type: in vivo; conditions: evaluation 7 days after inoculation
Method: Solvent: 25 parts by weight of N,N-dimethylacetamide
Emulsifier: 0.6 part by weight of alkylaryl polyglycol ether
as §3
To test for protective activity, young plants are sprayed with the preparation of active compound at the stated application rate.
After the spray coating has dried on, the plants are dusted with spores von Erysiphe graminis f.sp. tritici.
The plants are placed in a greenhouse at a temperature of about 20° C. and a relative atmospheric humidity of about 80% to promote the development of mildew pustules.
Evaluation is carried out 7 days after the inoculation. 0% means an efficacy which corresponds to that of the control, whereas an efficacy of 100% means that no infection is observed.

[4] = tested on: larvae of the green rice leafhopper (Nephotettix cincticeps); test: Nephotettix test; type: in vivo; conditions: concentration of active compound 0.1 %, rice seedlings dipped
Method: as §4, §5, §6
Rice seedlings (Oryza sativa) are treated by being dipped into the preparation of active compound of the desired concentration and are populated with larvae of the green rice leafhopper (Nephotettix cincticeps) while the seedlings are still moist.
After the desired period of time, the kill in % is determined. 100% means that all leaf hoppers have been killed; 0% means that none of the leaf hoppers have been killed.

[5] = tested on: greenhouse red spider mite (Tetranychus urticae); test: Tetranychus test (OP-resistant/dip treatment); type: in vivo; conditions: concentration of active compound 0.01 %, bean plants dipped, OP-resistant
Method: as §4, §5
To produce a suitable preparation of active compound, 1 part by weight of active compound is mixed with the stated amount of solvent and the stated amount of emulsifier, and the concentrate is diluted with emulsifier-containing water to the desired concentrations.
Bean plants (Phaseolus vulgaris) which are heavily infested by all stages of the greenhouse red spider mite (Tetranychus urticae) are dipped into a preparation of active compound of the desired concentration.
After the desired period of time, the effect in % is determined. 100% means that all spider mites have been killed; 0% means that none of the spider mites have been killed.

[6] = acidic, isomer mixtures, the higher log p value is stated, Table 13, read-out: log p (acidic)
[7] = pH 2.3, pH 2.3, for Example 1 two values for the two isomers, read-out: log p (pH 2.3)

Cc1nsc(NC(=O)Cc2ccc(C3(C)OCC(c4ccc(Cl)cc4)O3)cc2)c1Cl (centres unmarked) [Example 17] showed a logP (log p determination; [6]) of 4.35, a pest or weed control at 100 g/ha (Plasmopara vilicola) of 97% and an Efficacy in % (Podosphaera leucotricha) of 99%. The pest or weed control at 0.1 % [1] was 100% and the “Kill rate in % after 7 d” value [2] was 100%.

With CC(=O)c1cccc(CC(=O)Nc2snc(C)c2Cl)c1 [Example 31, 5-[3-(acetylphenyl)-acetaminol]-4-chloro-3-methyl-isothiazole] the logP (log p determination; [7]) was 2.14 and the melting point was 77 to 83 °C.

With CCC1COC(C)(c2ccc(CC(=O)Nc3snc(C)c3Cl)cc2)O1 (centres unmarked) [Example 7] the logP (log p determination; [6]) was 3.23, the pest or weed control at 100 g/ha (Plasmopara vilicola) was 100% and the Efficacy in % (Podosphaera leucotricha) was 97%. For the same compound, the Efficacy in % ([3]; application rate 1000 g/ha) was 81%, the “Kill rate in % after 6 d” value [4] was 100% and the pest or weed control at 0.1 % [1] was 100%. The “Kill rate in % after 7 d” value [2] was 100%.

For Cc1nsc(NC(=O)Cc2ccc(C3(C)OCC(C(C)(C)C)O3)cc2)c1Cl (centres unmarked) [Example 5], the logP (log p determination; [6]) was 4, the “Kill rate in % after 6 d” value [4] was 100% and the “Kill rate in % after 7 d” value [5] was 100%.

With Cc1nsc(NC(=O)Cc2ccc(C3(C)OCC(CCl)O3)cc2)c1Cl (centres unmarked) [Example 6] the logP (log p determination; [6]) was 3.09, the pest or weed control at 100 g/ha (Plasmopara vilicola) was 100% and the “Kill rate in % after 6 d” value [4] was 100%. It also gave a pest or weed control at 0.1 % [1] of 100%.

Cc1nsc(NC(=O)Cc2ccc(C3(C)OCC(COc4ccc(Cl)cc4)O3)cc2)c1Cl (centres unmarked) [Example 9] showed a logP (log p determination; [6]) of 4.24, a pest or weed control at 100 g/ha (Plasmopara vilicola) of 100% and an Efficacy in % (Podosphaera leucotricha) of 97%. For the same compound, the pest or weed control at 0.1 % [1] was 100%.

For Cc1nsc(NC(=O)Cc2ccc(C3(C)OCC(CBr)(CBr)CO3)cc2)c1Cl [Example 20], the logP (log p determination; [6]) was 4.21, the pest or weed control at 100 g/ha (Plasmopara vilicola) was 96% and the “Kill rate in % after 6 d” value [4] was 100%. For the same compound, the “Kill rate in % after 7 d” value [2] was 100%.

CC=CCCCC1COC(C)(c2ccc(CC(=O)Nc3snc(C)c3Cl)cc2)O1 (centres unmarked) [Example 8] gave a logP (log p determination; [6]) of 4.4, a pest or weed control at 100 g/ha (Plasmopara vilicola) of 97% and an Efficacy in % (Podosphaera leucotricha) of 95%. The Efficacy in % ([3]; application rate 500 g/ha) was 81%, the pest or weed control at 0.1 % [1] was 100% and the “Kill rate in % after 7 d” value [2] was 100%. The “Kill rate in % after 7 d” value [5] was 100%.

Cc1nsc(NC(=O)Cc2ccc(C3(C)OCC(c4cccc(Cl)c4)O3)cc2)c1Cl (centres unmarked) [Example 15] showed a logP (log p determination; [6]) of 4.32 and a pest or weed control at 100 g/ha (Plasmopara vilicola) of 97%.

With CC(=O)c1ccc(CC(=O)Nc2snc(C)c2Cl)cc1 the logP (log p determination; [7]) was 2.12.

With CCCCCCCCC1COC(C)(c2ccc(CC(=O)Nc3snc(C)c3Cl)cc2)O1 (centres unmarked) [Example 1] the logP (log p determination; [7]) was 5.84, the “log p (pH 2.3)” value (log p determination; pH 2.3, for Example 1 two values for the two isomers) was 6.05 and the pest or weed control at 0.1 % [1] was 100%.

CCc1nsc(NC(=O)Cc2cccc(C(C)=O)c2)n1 [Example 30] showed a logP (log p determination; [7]) of 1.87 and a melting point of 121 to 125 °C.

Cc1nsc(NC(=O)Cc2ccc(C3(C)OCC(c4ccccc4)O3)cc2)c1Cl (centres unmarked) [Example 3] showed a logP (log p determination; [6]) of 3.83, a pest or weed control at 100 g/ha (Plasmopara vilicola) of 99% and an Efficacy in % (Podosphaera leucotricha) of 99%. For the same compound, the pest or weed control at 0.1 % [1] was 100% and the “Kill rate in % after 7 d” value [5] was 100%.

CC(=O)c1cccc(CC(=O)Nc2nc(C)ns2)c1 [Example 29, 5-[3(-acetylphenyl)acetaminol]-3-methyl-1,2,4-thiadiazole] showed a logP (log p determination; [7]) of 1.56 and a melting point of 91 to 98 °C.

For C=CCOCC1COC(C)(c2ccc(CC(=O)Nc3snc(C)c3Cl)cc2)O1 (centres unmarked) [Example 4], the logP (log p determination; [6]) was 3.23, the pest or weed control at 100 g/ha (Plasmopara vilicola) was 100% and the “Kill rate in % after 7 d” value [5] was 100%.

Compound Cc1nsc(NC(=O)Cc2ccc(C3(C)OCC(c4ccc(Cl)c(Cl)c4)O3)cc2)c1Cl (centres unmarked) [Example 16] has a logP (log p determination; [6]) of 4.82 and a pest or weed control at 0.1 % [1] of 100%.
